From US20100324279A1, “CRYSTAL FORMS OF 2-[2-(4-CHLOROPHENYL)ETHOXY]ADENOSINE” (priority 2007, published 2010)
In brackets after ≈: the same amount, converted by molar mass. One block for each compound: values may come before it.

Key:
[1] = Heat stress studies and variable temperature XRPD; assay type: physicochemical
Procedure: For heat stress studies, samples of MRE-0094 A-type crystals are heated isothermally at different temperatures to investigate the effect of temperatures on solid state conversions. The samples are heated for up to 15 min. The solid material is allowed to cool before analyzing by XRPD.
(2 min). Variable temperature XRPD (VT-XRPD) may be performed on A-type crystals of MRE-0094 to better understand its thermal behavior. […] The sample remains as B-type crystals up to 165° C. […] It is likely that the melting of B-type crystals, subsequent recrystallization, and final melting of the solid occurs too fast to be captured by VT-XRPD. Based on the VT-XRPD data, the thermal events observed by DSC at approximately 117° C. and 126° C. are due to the solid conversion followed by the subsequent recrystallization to form B-type crystals.

[2] = Approximate solubilities of A-type crystals of MRE-0094 in test solvents; assay type: physicochemical; conditions: organic solvent or mixture, thermodynamic from solid; PG, RT; agitated two days, calculated from difference between starting and ending weights
[3] = Moisture sorption/desorption analysis; assay type: physicochemical; conditions: for Solid material after moisture sorption identified by XRPD: after sorption/desorption 5 to 95% RH; for Moisture sorption: total weight gain: between 5% and 95% relative humidity (RH); for Hygroscopicity based on the moisture sorption data: exposed to high relative humidity; for Weight lost upon desorption: after sorption to 95% RH
Procedure: Moisture sorption/desorption analyses may be performed, e.g., on a VTI SGA-100 Vapor Sorption Analyzer Sorption and desorption data are collected, e.g., over a range of 5 to 95% relative humidity (RH) at 10% RH intervals under a nitrogen purge. Samples need not to be dried prior to analysis. Equilibrium criteria used for analysis are, e.g., less than 0.01% weight change in 5 min, with a maximum equilibration time of 3 h if the weight criterion is not met NaCl and PVP may used as calibration standards.

[4] = Approximate solubilities of A-type crystals of MRE-0094 in test solvents; assay type: physicochemical; conditions: thermodynamic from solid
Procedure: Weighed samples of MRE-0094 (typically 30-60 mg) are treated with aliquots of the test solvent. Solvents are either reagent or HPLC grade. The aliquots are usually 200 μL or 500 μL. Between additions the mixtures are sonicated. […] Note that actual solubilities may be greater than those calculated due to the volume of the solvent aliquots or to a slow rate of dissolution. […] The solubilities are reported to the nearest mg/mL.

[5] = Desolvation/dehydration studies under various drying conditions (XRPD); assay type: physicochemical; conditions: for Solid form after exposure to ambient conditions: eight days
Procedure: Desolvation studies under various conditions may be performed to investigate the effects of drying conditions on the C-type crystals. […] However, the anhydrous form to which C-type crystals convert may be dependent on the drying conditions and temperature.
Desolvation studies under various conditions may be conducted to investigate the effects of drying conditions on F-type crystals.
Dehydration studies under various conditions are performed to investigate the effects of drying conditions on the I-type crystals.

[6] = Stability to mechanical grinding/milling followed by vapor stress (XRPD); assay type: physicochemical; conditions: ball-milling, then about 97% relative humidity, K2SO4 humidity jar, 1 day
Source text: Stability to grinding may be assessed by measurement of an appropriate physical property before and after grinding. Where the physical property remains substantially unchanged substantial stability to grinding is indicated. Suitable physico-chemical properties for measurement include a melting point or DSC analysis, a X-ray diffraction pattern, an infrared absorption spectrum and a Raman spectrum, particularly the X-ray diffraction pattern.
Stability to mechanical grinding/milling may be tested, e.g., by employing a small stainless steel cylinder The cylinder is charged with a weighted amount of a crystal form of MRE-0094 and a stainless steel ball is added, the cylinder is capped and the unit is placed on a Retsch Mixer Mill (Type MM 200) for a total of 30 min at a frequency of 30/s (ball-milling).

[7] = Phase I study: plasma concentrations of MRE-0094 (systemic absorption); assay type: in vivo, patients; conditions: any topical dose concentration (5, 50, 500 μg/g gel)
Procedure: (§1) MRE-0094 is administered to patients with neuropathic, diabetic foot ulcers (DFU). Patients 18-80 years old are randomized in a 1:3 ratio to a standard DFU care and a vehicle gel, or a standard DFU care and a gel containing MRE-0094 as described herein above. Standard care include routine sharp debridement, pressure offloading, and maintaining a moist wound environment. Inclusion criteria includes full thickness wounds between 1 and 10 cm^2 in area. Exclusion criteria includes arterial insufficiency, renal or hepatic insufficiency, active infection, or osteomyelitis. Patients are enrolled into 3 groups, and receive drug at an escalating concentration by group of 5 μg/g, 50 μg/g, or 500 μg/g. Safety data are reviewed by an independent safety board prior to escalating dose. Drug or vehicle is applied topically once daily for 28 days. Outcome measures include adverse events and other safety assessments, plasma concentrations of the active agent MRE-0094, percent of wound closure, and rate of wound closure. Thirty-six patients are randomized (25 active agent, 11 vehicle gel, i.e., placebo) with an average age of 54.8 years, 78% are male.

[8] = system: neuropathic, diabetic foot ulcers (DFU); experiment: Phase I study of topical MRE-0094 gel: wound closure; assay type: in vivo; conditions: DFU patients; for % Wound Closure (Day 28): topically once daily for 28 days; for Median Number of Days to: 50% Closure / Median Number of Days to: 75% Closure: topically once daily
Procedure: as §1

[9] = system: diabetic ulcers; conditions: healthy BALB/C mice; cited from earlier work

Compound: Nc1nc(OCCc2ccc(Cl)cc2)nc2c1ncn2[C@@H]1O[C@H](CO)[C@@H](O)[C@H]1O [B-type crystal form, 2-[2-(4-chlorophenyl)ethoxy]adenosine]
Weight lost upon desorption [3]: Approximately 3.7% | Solid material after moisture sorption identified by XRPD [3]: B-type crystal form | Moisture sorption: total weight gain [3]: approximately 3.9% | Hygroscopicity based on the moisture sorption data [3]: hygroscopic

Compound: Nc1nc(OCCc2ccc(Cl)cc2)nc2c1ncn2[C@@H]1O[C@H](CO)[C@@H](O)[C@H]1O [F-type crystal form, 2-[2-(4-chlorophenyl)ethoxy]adenosine]
Solid form after exposure to ambient conditions ([5]; listed as F-type crystals): Amorphous/low crystalline material | Solid form after desolvation ([5]; vacuum oven and 60° C.): low crystalline mixture of A-type and B-type crystals

Compound: Nc1nc(OCCc2ccc(Cl)cc2)nc2c1ncn2[C@@H]1O[C@H](CO)[C@@H](O)[C@H]1O [I-type crystal form, 2-[2-(4-chlorophenyl)ethoxy]adenosine]
Solid form after dehydration ([5]; various drying conditions): either B-type, or a mixture of A-type and B-type crystals

Compound: Nc1nc(OCCc2ccc(Cl)cc2)nc2c1ncn2[C@@H]1O[C@H](CO)[C@@H](O)[C@H]1O [MRE-0094, 2-[2-(4-chlorophenyl)ethoxy]adenosine]
Systemic absorption of MRE-0094 [7]: No systemic absorption | % Wound Closure (Day 28) ([8]; 5 μg/g gel): 60.7% | Median Number of Days to: 50% Closure ([8]; 5 μg/g gel): 8 days | Median Number of Days to: 75% Closure ([8]; 5 μg/g gel): 14 days | % Wound Closure (Day 28) ([8]; 50 μg/g gel): 67.5% | Median Number of Days to: 50% Closure ([8]; 50 μg/g gel): 12 days | Median Number of Days to: 75% Closure ([8]; 50 μg/g gel): 28 days | % Wound Closure (Day 28) ([8]; 500 μg/g gel): 35.4% | Median Number of Days to: 50% Closure ([8]; 500 μg/g gel): 14 days | Median Number of Days to: 75% Closure ([8]; 500 μg/g gel): 36 days | Wound healing of diabetic ulcers [9]: promote wound healing

Now from value to compound, other results behind:

Temperature of solid form conversion in heat stress studies ([1]; isothermal heating, 2 min): approximately 164 °C | Temperature of conversion to B-type crystal form (VT-XRPD) ([1]; variable temperature XRPD): 120 °C | Temperature up to which the crystal form remains as such (VT-XRPD) ([1]; variable temperature XRPD): up to 115 °C | solubility at 2 days [2]: < 71000 µg/mL | Solid material after moisture sorption identified by XRPD [3]: A-type crystal form | Moisture sorption: total weight gain [3]: approximately 4.3% | Moisture sorption: weight gain ([3]; between 5 and 55% RH): approximately 0.3% | Moisture sorption: additional weight gain ([3]; between 55% and 95% RH): 4.0% | Hygroscopicity based on the moisture sorption data [3]: hygroscopic | solubility ([4]; aqueous with cosolvent or surfactant or cyclodextrin, EtOH:water - 1:1, RT): 9000 µg/mL (≈ 21.3 mM) | solubility ([4]; aqueous with cosolvent or surfactant or cyclodextrin, water:PG - 1:1, RT): 6000 µg/mL (≈ 14.2 mM) | solubility ([4]; organic solvent or mixture, 1,4-dioxane, RT): 17000 µg/mL (≈ 40.3 mM) | solubility ([4]; organic solvent or mixture, ACN, RT): < 3000 µg/mL | solubility ([4]; organic solvent or mixture, DCM, RT): < 2000 µg/mL | solubility ([4]; organic solvent or mixture, DMF, RT): 179000 µg/mL (≈ 424 mM) | solubility ([4]; organic solvent or mixture, EtOAc, RT): < 4000 µg/mL | solubility ([4]; organic solvent or mixture, EtOH, RT): 7000 µg/mL (≈ 16.6 mM) | solubility ([4]; organic solvent or mixture, EtOH:water - 19:1, RT): 12000 µg/mL (≈ 28.4 mM) | solubility ([4]; organic solvent or mixture, IPA, RT): 4000 µg/mL (≈ 9.48 mM) | solubility ([4]; organic solvent or mixture, MEK, RT): 4000 µg/mL (≈ 9.48 mM) | solubility ([4]; organic solvent or mixture, MeOH, RT): 4000 µg/mL (≈ 9.48 mM) | solubility ([4]; organic solvent or mixture, TFE, RT): 11000 µg/mL (≈ 26.1 mM) | solubility ([4]; organic solvent or mixture, THF, RT): 23000 µg/mL (≈ 54.5 mM) | solubility ([4]; organic solvent or mixture, acetone, RT): 5000 µg/mL (≈ 11.9 mM) | solubility ([4]; organic solvent or mixture, heptane, RT): < 4000 µg/mL | solubility ([4]; organic solvent or mixture, toluene, RT): < 4000 µg/mL | solubility ([4]; water, RT): < 300 µg/mL
Compound: Nc1nc(OCCc2ccc(Cl)cc2)nc2c1ncn2[C@@H]1O[C@H](CO)[C@@H](O)[C@H]1O [A-type crystal form, 2-[2-(4-chlorophenyl)ethoxy]adenosine]

Solid form after desolvation ([5]; heated at 60° C. for eight days or dried in vacuo for six days): convert to A-type crystal form
Compound: Nc1nc(OCCc2ccc(Cl)cc2)nc2c1ncn2[C@@H]1O[C@H](CO)[C@@H](O)[C@H]1O [C-type crystal form, 2-[2-(4-chlorophenyl)ethoxy]adenosine]
Solid form after exposure to ambient conditions [5]: does not completely convert to A-type crystals

Stability to mechanical milling followed by vapor stress [6]: substantially stable | Weight lost upon desorption [3]: Approximately 2.2% | Solid material after moisture sorption identified by XRPD [3]: G-type crystal form | Moisture sorption: total weight gain [3]: approximately 2.4% | Hygroscopicity based on the moisture sorption data [3]: hygroscopic
Compound: Nc1nc(OCCc2ccc(Cl)cc2)nc2c1ncn2[C@@H]1O[C@H](CO)[C@@H](O)[C@H]1O [G-type crystal form, 2-[2-(4-chlorophenyl)ethoxy]adenosine]
